Data from patent US7659277B2, “Ubiquitin ligase inhibitors and methods related thereto” (Proteologies, Ltd., priority 2003, dated 2010).

Assays:
Type in all cases: biochemical
[1] = biological target: T1, POSH (Homo sapiens, UniProt Q7Z6J0); assay: IC50 assay procedure: GST-POSH auto-ubiquitination, homogeneous time-resolved fluorescence (Ub-cryptate / anti-GST XL665); settings: ubiquitin ligase activity of POSH; GST-POSH 33 nM, 30 min preincubation
T1 construct: GST-POSH lot NB81/p.118 3.6 mg/ml; fused on or other part: GST tag, used for detection with anti-GST XL665
T1 sequence (Q7Z6J0 1-269 limits assumed): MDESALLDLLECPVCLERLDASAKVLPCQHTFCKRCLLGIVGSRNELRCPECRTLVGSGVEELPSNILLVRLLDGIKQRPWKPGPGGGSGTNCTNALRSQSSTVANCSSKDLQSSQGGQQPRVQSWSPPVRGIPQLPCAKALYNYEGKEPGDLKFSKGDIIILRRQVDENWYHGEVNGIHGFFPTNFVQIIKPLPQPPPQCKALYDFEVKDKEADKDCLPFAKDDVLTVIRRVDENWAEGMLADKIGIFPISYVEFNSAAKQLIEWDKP
From the text: In certain preferred embodiments, agents that inhibit (or promote) the ubiquitin ligase activity of a ubiquitin ligase, such as POSH, may be identified using a homogenous time resolved fluorescence assay. Such an assay may employ a GST fused to the RING subunit of a ubiquitin ligase (e.g. POSH). Two flurophore-conjugated detection reagents are also used: anti-GSTXL665 and europium cryptate labeled ubiqutin. The ubiqutination of the ubiquitin ligase by ubiqutin cryptate and binding of the anti-GST tagged XL665 brings the fluorophores into close proximity allowing FRET reaction to occur. Accordingly, FRET serves as a measurement of ubiquitination of the ubiquitin ligase. An enzymatic system may be set up to provide activated ubiquitin, e.g., by providing ubiquitin, an E1 and an E2. Compounds that will not allow the FRET reaction are considered to be inhibitors.
Step 3: establish IC 50 value measurements.
Experimental Protocols: 1. HTS Screening Assay Procedure • Microplates 10109D to 10114D compounds at 1 mM. • (Controls in column 1). • All compounds were perchase from ChemBridge corporation: ChemBridge corporation 16981 Via Tazon, Suite G San Diego, Calif. 92127 a. Microplates Labeling • Put labels to 6 PS U-bottom clear microplate. • Put labels to 18 black microplates (triplicats). b. Microplates Preparation • Put 100 μl GST-POSH at 33 nM in wells of the clear PS U-bottom microplates (exept wells A1-D1). • Negative control: place 100 μl dH2O in wells A1-D1. • (Positive control: place 100 μl GST-POSH at 33 nM in wells E1-H1). • Put 8 μl enzymes solution ×4 to black microplates (column 1 to 11). c. Incubation of E3 with Compounds • Transfer 5 μl of compounds (at 1 mM) to the microplates containing 100 μl GST-POSH. • Add 5 μl of DMSO to controls column 1. • Incubation 30 minutes at RT. d. Enzymatic (Ubiquitination) and Final Steps • Distribution of (triplicate) 3×23 μl incubated compounds into 3 black microplates containing enzymatic solution (on splitting apparatus). • Incubation 30 minutes at 37° C. • Addition of 8 μl EDTA 0.5 M. • Incubation 15 (at least) minutes at RT. • Addition of 30 μl GST XL 665 in reconstitution buffer. • Incubation 45 (at least) minutes at RT. • Reading fluorescence. • Record results in computer. • Put sealing foil back on original and diluted microplates and keep at −70° C. • Always the plates must be closed with lids during each step. 2. […] Microplates Labeling • Put labels to 4 clear PP clear microplate (18.2 μM, 9.1 uM, 1.82 uM, 910 nM,). • Put labels to 5 clear PS U-bottom clear microplate 4.44 μM, 909, 444, 91 and 44 nM) • Put labels to 15 black microplates (triplicates). f. Original Microplate Dilutions • Put DMSO 40 μl to (18.2 μM, 1.82 uM plates) and 20 ul to (9.1 uM, 910 nM plates. • Mix by pipetation the original microplate (3× up and down 45 μl). • Transfer 10 μl of compounds from the original microplate (at 91 μM) to the next microplate (=18.2 μM) on splitting apparatus. • Mix by pipetation the 18.2 uM microplate (3× up and down 45 μl). • Transfer 20 μl of compounds from the 18.2 uM microplate to the next microplate (=9.1 μM) on splitting apparatus. • Mix by pipetation the 9.1 uM microplate (3× up and down 45 μl). • Transfer 10 μl of compounds from the 9.1 uM microplate to the next microplate (=1.82 μM) on splitting apparatus. • Mix by pipetation the 1.82 uM microplate (3× up and down 45 μl). • Transfer 20 μl of compounds from the 1.82 uM microplate to the next microplate (=910 nM) on splitting apparatus • Mix by pipetation. g. Microplates Preparation • Put 123 μl GST-POSH at 33 nM in wells of the 5 clear PS U-bottom clear microplates. • Positive control: place 123 μl GST-POSH at 33 nM in well A12-h12 13 μl DMSO. • Negative control: place 123 μl dH2O in well B1 and 13 μl DMSO. • Put 8 μl enzymes solution ×4 to 15 black microplates. • Controls: put 8 μl enzymes solution ×4 to wells A1 to F1. h. […]

[2] = tested on: E2 protein; settings: % activity at 1 μM compound; control is related to 100% activity; HTS protocol
[3] = biological target: c-cbl (Homo sapiens, UniProt P22681); assay: Selectivity (% A in 1 μM), ubiquitin ligase activity of c-cbl; settings: % activity at 1 μM compound; control is related to 100% activity; HTS protocol

COc1cc(/C=C2\SC(=O)NC2=O)ccc1OCc1ccc(Cl)cc1Cl [Compound 34]
IC50 [1]: 1000 nM
Selectivity (% A* in 1 μM) E2 [2]: 93%
remaining activity at 1 µM [3]: 135%

O=C1NC(=O)N(c2ccc(Br)cc2)C(=O)/C1=C/c1ccc(O)cc1 [Compound 5]
IC50 [1]: 300 nM

COc1cc(N/C=C2/C(=O)NC(=S)N(c3cccc(C)c3)C2=O)cc(OC)c1 [Compound 16]
IC50 [1]: 1000 nM

COc1ccc(/C=C/C(=O)C2C(=O)CCC2=O)cc1OC [Compound 113]
IC50 [1]: 400 nM
Selectivity (% A* in 1 μM) E2 [2]: 66%
remaining activity at 1 µM [3]: 93%

Cc1ccc(/C=N/c2ccc(C(N)=O)cc2)o1 [Compound 73]
IC50 [1]: 1500 nM
Selectivity (% A* in 1 μM) E2 [2]: 64%
remaining activity at 1 µM [3]: 90%

Cc1ccc(/C=N/c2ccc(Cl)cc2)o1 [Compound 74]
IC50 [1]: 1000 nM
Selectivity (% A* in 1 μM) E2 [2]: 96%
remaining activity at 1 µM [3]: 110%

COc1ccc(CNc2cccc(N(C)C)c2)cc1 [Compound 106]
IC50 [1]: 900 nM
Selectivity (% A* in 1 μM) E2 [2]: 88%
remaining activity at 1 µM [3]: 112%

COc1ccc(N2C(=O)NC(=O)/C(=C\c3ccc(Cl)cc3)C2=O)cc1 [Compound 7]
IC50 [1]: 1000 nM

C=CCN1C(=O)NC(=O)/C(=C/c2ccc(F)cc2)C1=O [Compound 12]
IC50 [1]: 1000 nM

Cc1cc(C)c(O)c(/N=C/c2c(O)ccc3ccccc23)c1 [Compound 65]
IC50 [1]: 1000 nM
Selectivity (% A* in 1 μM) E2 [2]: 65%
remaining activity at 1 µM [3]: 101%

O=C(C(Cl)Cl)N1CCN(c2ccc([N+](=O)[O-])cc2)CC1 [Compound 79]
IC50 [1]: 900 nM
Selectivity (% A* in 1 μM) E2 [2]: 55%
remaining activity at 1 µM [3]: 89%

CC(=O)Nc1ccc(-c2cc3ccccn3c2)cc1 [Compound 78]
IC50 [1]: 900 nM
Selectivity (% A* in 1 μM) E2 [2]: 43%
remaining activity at 1 µM [3]: 151%

COC(=O)c1ccc(N2C(=O)c3cccc(N)c3C2=O)cc1 [Compound 21]
IC50 [1]: 800 nM
Selectivity (% A* in 1 μM) E2 [2]: 75%
remaining activity at 1 µM [3]: 91%

Oc1c(Br)cc(Cl)cc1/C=N/c1ccccc1Br [Compound 58]
IC50 [1]: 800 nM
Selectivity (% A* in 1 μM) E2 [2]: 108%
remaining activity at 1 µM [3]: 115%

Oc1ccc2ccccc2c1/C=N/c1ncc(Br)cc1Br [Compound 66]
IC50 [1]: 900 nM
Selectivity (% A* in 1 μM) E2 [2]: 117%
remaining activity at 1 µM [3]: 107%

Oc1ccc(/N=C/c2cccs2)cc1-c1nc2ccccc2s1 [Compound 71]
IC50 [1]: 800 nM
Selectivity (% A* in 1 μM) E2 [2]: 86%
remaining activity at 1 µM [3]: 84%

O=C1C(=Cc2ccco2)C(=O)N(c2ccccc2)C(=S)N1c1ccccc1 [Compound 13]
IC50 [1]: 1000 nM

O=[N+]([O-])c1ccc(Cl)cc1CN1CCN(CCO)CC1 [Compound 82]
IC50 [1]: 300 nM
Selectivity (% A* in 1 μM) E2 [2]: 47%
remaining activity at 1 µM [3]: 77%

O=C1C=CC(=O)N1c1cc(Cl)cc(Cl)c1 [Compound 23]
IC50 [1]: 200 nM
Selectivity (% A* in 1 μM) E2 [2]: 112%
remaining activity at 1 µM [3]: 102%

O=[N+]([O-])c1ccc(-c2ccc(/N=C/c3c(O)ccc4ccccc34)cc2)cc1 [Compound 60]
IC50 [1]: 1000 nM
Selectivity (% A* in 1 μM) E2 [2]: 53%
remaining activity at 1 µM [3]: 110%

COc1cc(C=C2C(=O)N(C)C(=S)N(C)C2=O)ccc1O [Compound 9]
IC50 [1]: 10000 nM

Cc1cc(/N=C/c2c(O)ccc3ccccc23)no1 [Compound 111]
IC50 [1]: 1000 nM
Selectivity (% A* in 1 μM) E2 [2]: 49%
remaining activity at 1 µM [3]: 98%

Cc1cc(I)ccc1NCn1nnc2ccccc21 [Compound 105]
IC50 [1]: 800 nM
Selectivity (% A* in 1 μM) E2 [2]: 93%
remaining activity at 1 µM [3]: 117%

COc1ccccc1/C=C1\N=C(c2ccccc2Cl)OC1=O [Compound 49]
IC50 [1]: 1000 nM
Selectivity (% A* in 1 μM) E2 [2]: 43%
remaining activity at 1 µM [3]: 127%

O=C1\C(=C/C=C/C=C/Nc2ccccc2)SC(=S)N1c1ccccc1 [Compound 24]
IC50 [1]: 1000 nM
Selectivity (% A* in 1 μM) E2 [2]: 87%
remaining activity at 1 µM [3]: 90%

Oc1c(Br)cc(Br)cc1/C=N/c1ccc(Br)cn1 [Compound 61]
IC50 [1]: 700 nM
Selectivity (% A* in 1 μM) E2 [2]: 52%
remaining activity at 1 µM [3]: 133%

O=c1nc(C(F)(F)F)cc(/C=C/c2ccc(-c3ccc(Br)cc3)o2)[nH]1 [Compound 39]
IC50 [1]: 1000 nM
Selectivity (% A* in 1 μM) E2 [2]: 98%
remaining activity at 1 µM [3]: 132%

O=[N+]([O-])c1ccc2c(c1)Cc1cc(/N=C/c3ccc(Br)cc3)ccc1-2 [Compound 67]
IC50 [1]: 1000 nM
Selectivity (% A* in 1 μM) E2 [2]: 98%
remaining activity at 1 µM [3]: 92%

O=C1NC(=O)/C(=C\c2ccc(-c3ccc(F)cc3)o2)S1 [Compound 108]
IC50 [1]: 900 nM

O=C1N=C(c2ccccc2)S/C1=C/c1ccc2ccccc2c1 [Compound 41]
IC50 [1]: 1000 nM
Selectivity (% A* in 1 μM) E2 [2]: 82%
remaining activity at 1 µM [3]: 141%

O=C1NC(=S)N(c2ccccc2)C(=O)/C1=C\c1c(Cl)cccc1Cl [Compound 6]
IC50 [1]: 800 nM

COc1ccc(/C=C2\C(=O)NC(=S)N(c3ccccc3)C2=O)cc1 [Compound 11]
IC50 [1]: 10000 nM

COc1ccc(CC(C)NCc2ccccc2Cl)cc1 (stereo not drawn) [Compound 107]
IC50 [1]: 1000 nM

COc1cc(N/C=C2/C(=O)NC(=S)N(c3ccc(F)cc3)C2=O)cc(OC)c1 [Compound 17]
IC50 [1]: 700 nM

COc1ccccc1N1C(=O)NC(=O)/C(=C\C=C\c2ccccc2)C1=O [Compound 10]
IC50 [1]: 1000 nM
